For data set [1] the following is noted: 101.33 kPa, Liquid; for viscosity: Capillary tube (Ostwald / Ubbelohde) method; for speed of sound: Linear variable-path acoustic interferometer; for mass density: Pycnometric method.
Data set [2] can be described thus: mn = molality of the nth substance listed, in mol/kg. The conditions noted are these: 101 kPa, Liquid, m2 = 0; for viscosity: Capillary tube (Ostwald / Ubbelohde) method; for speed of sound: Linear variable-path acoustic interferometer; for mass density: Pycnometric method.

Each structure is given as a SMILES string. ± gives the expanded uncertainty stated by the source.

The viscosity is the internal friction of a fluid under shear. The term speed of sound denotes the propagation velocity of pressure waves in the medium. As a reminder, the mass density is the mass of a sample divided by its volume. Regarding `CN(C)C=O` [dimethylformamide], in data set [1] (303 K), the viscosity came to 0.7588 ± 0.15 mPa·s, the speed of sound is given as 1442 ± 6 m/s and the mass density stood at 941.7 ± 0.7 kg/m3. Also, in data set [1] (308 K), the viscosity is on record as 0.7056 ± 0.14 mPa·s, the speed of sound is given as 1432 ± 5.9 m/s and the mass density is listed as 937.2 ± 0.7 kg/m3. In data set [1] (313 K), the viscosity is listed as 0.6353 ± 0.13 mPa·s, the speed of sound is 1402 ± 5.8 m/s and the mass density is on record as 933.6 ± 0.6 kg/m3.

For `CN(C)C=O` [dimethylformamide] + CC(=O)N1N=C(CSc2nc3ccccc3c(=O)n2-c2ccccc2C)OC1(C)c1ccc(C)cc1, the viscosity in data set [2] (303 K) was determined as 0.7588 ± 0.15 mPa·s; in data set [2] (308 K), 0.7056 ± 0.14 mPa·s; in data set [2] (313 K), 0.6353 ± 0.13 mPa·s. Besides, the speed of sound stood at 1442 ± 6 m/s in data set [2] (303 K), 1432 ± 5.9 m/s in data set [2] (308 K) and 1402 ± 5.8 m/s in data set [2] (313 K). In addition, the mass density in data set [2] (303 K) worked out at 941.7 ± 0.7 kg/m3; in data set [2] (308 K), 937.2 ± 0.7 kg/m3; in data set [2] (313 K) it was 933.6 ± 0.6 kg/m3.

Regarding `CN(C)C=O` [dimethylformamide] + COc1ccc(C2(C)OC(CSc3nc4ccccc4c(=O)n3-c3ccccc3C)=NN2C(C)=O)cc1, in data set [2] (303 K), the viscosity was 0.7588 ± 0.15 mPa·s, the speed of sound was found to be 1442 ± 6 m/s and the mass density worked out at 941.7 ± 0.7 kg/m3. Besides, in data set [2] (308 K), the viscosity turned out to be 0.7056 ± 0.14 mPa·s, the speed of sound worked out at 1432 ± 5.9 m/s and the mass density came to 937.2 ± 0.7 kg/m3. Further, in data set [2] (313 K), the viscosity is 0.6353 ± 0.13 mPa·s, the speed of sound amounted to 1402 ± 5.8 m/s and the mass density was 933.6 ± 0.6 kg/m3.

For the compound `ClC(Cl)Cl` [trichloromethane], in data set [1] (303 K), the viscosity was found to be 0.6628 ± 0.13 mPa·s, the speed of sound is 960 ± 4 m/s and the mass density was 1475.3 ± 20 kg/m3. For the same compound, in data set [1] (308 K), the viscosity turned out to be 0.6279 ± 0.13 mPa·s, the speed of sound worked out at 950.8 ± 4 m/s and the mass density is recorded as 1470.8 ± 20 kg/m3. Besides, in data set [1] (313 K), the viscosity stood at 0.5781 ± 0.12 mPa·s, the speed of sound is listed as 932.4 ± 3.9 m/s and the mass density worked out at 1465.8 ± 20 kg/m3.

In the case of `ClC(Cl)Cl` [trichloromethane] + CC(=O)N1N=C(CSc2nc3ccccc3c(=O)n2-c2ccccc2C)OC1(C)c1ccc(C)cc1, the viscosity turned out to be 0.6628 ± 0.13 mPa·s in data set [2] (303 K), 0.6279 ± 0.13 mPa·s in data set [2] (308 K) and 0.5781 ± 0.12 mPa·s in data set [2] (313 K). Besides, the results for the speed of sound in data set [2] (303 K), in data set [2] (308 K) and in data set [2] (313 K) were 960 ± 4 m/s, 950.8 ± 4 m/s and 932.4 ± 3.9 m/s, respectively. Further, the mass density in data set [2] (303 K) was determined as 1475.3 ± 20 kg/m3; in data set [2] (308 K) it was 1470.8 ± 20 kg/m3; in data set [2] (313 K), 1465.8 ± 20 kg/m3.

Turning to `ClC(Cl)Cl` [trichloromethane] + COc1ccc(C2(C)OC(CSc3nc4ccccc4c(=O)n3-c3ccccc3C)=NN2C(C)=O)cc1, in data set [2] (303 K), the viscosity stood at 0.6628 ± 0.13 mPa·s, the speed of sound was found to be 960 ± 4 m/s and the mass density turned out to be 1475.3 ± 20 kg/m3. Further, in data set [2] (308 K), the viscosity was found to be 0.6279 ± 0.13 mPa·s, the speed of sound is on record as 950.8 ± 4 m/s and the mass density was 1470.8 ± 20 kg/m3. Also, in data set [2] (313 K), the viscosity worked out at 0.5781 ± 0.12 mPa·s, the speed of sound is given as 932.4 ± 3.9 m/s and the mass density came out at 1465.8 ± 20 kg/m3.

Values taken from the NIST ThermoML archive (doi:10.1016/j.jct.2012.09.013).
